Laboratory results from ChEMBL document CHEMBL1201862, “PubChem BioAssay data set” (2004).
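In this assay, cells in 96-well plates receive the compound at five concentrations for 48 hours. Endpoints are linearly interpolated between the surrounding concentrations. GI50: concentration for 50% inhibition of growth.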 Activity calls are given as the source filed them. Rule as the data show it: active = GI50 up to about 1.1 µM and inactive = higher.

Key:
Test in all cases: NCI-60 cell line screen, 48 h
CCRF-CEM = tested on: CCRF-CEM
K562 = tested on: K562
RXF 393 = tested on: RXF 393
OVCAR-8 = tested on: OVCAR-8
SK-MEL-5 = tested on: SK-MEL-5
SF-295 = tested on: SF-295
TK-10 = tested on: TK-10
786-0 = tested on: 786-0
SNB-75 = tested on: SNB-75
A549 = tested on: A549
SK-MEL-28 = tested on: SK-MEL-28
T47D = tested on: T47D
NCI-H522 = tested on: NCI-H522
SN12C = tested on: SN12C
PC-3 = tested on: PC-3
MDA-MB-435 = tested on: MDA-MB-435
M14 = tested on: M14
U-251 = tested on: U-251
DU-145 = tested on: DU-145
OVCAR-3 = tested on: OVCAR-3
HL-60 = tested on: HL-60
UO-31 = tested on: UO-31
SF-539 = tested on: SF-539
MCF7 = tested on: MCF7
OVCAR-5 = tested on: OVCAR-5
SNB-19 = tested on: SNB-19
UACC-257 = tested on: UACC-257
SF-268 = tested on: SF-268
SK-MEL-2 = tested on: SK-MEL-2
HT-29 = tested on: HT-29
HCC 2998 = tested on: HCC 2998
MDA-MB-231 = tested on: MDA-MB-231
SR = tested on: SR
EKVX = tested on: EKVX
NCI-H23 = tested on: NCI-H23
NCI-H226 = tested on: NCI-H226
MDA-N = tested on: MDA-N
UACC-62 = tested on: UACC-62
CAKI-1 = tested on: CAKI-1
SW-620 = tested on: SW-620
COLO 205 = tested on: COLO 205
NCI/ADR-RES = tested on: NCI/ADR-RES
HOP-92 = tested on: HOP-92
OVCAR-4 = tested on: OVCAR-4
KM12 = tested on: KM12
Hs-578T = tested on: Hs-578T
HCT-15 = tested on: HCT-15
MOLT-4 = tested on: MOLT-4
NCI-H460 = tested on: NCI-H460
ACHN = tested on: ACHN
SK-OV-3 = tested on: SK-OV-3
BT-549 = tested on: BT-549
HCT-116 = tested on: HCT-116
Malme-3M = tested on: Malme-3M
IGROV-1 = tested on: IGROV-1
LOX IMVI = tested on: LOX IMVI
HOP-62 = tested on: HOP-62
RPMI-8226 = tested on: RPMI-8226

SMILES: CCOC(=O)C(NC(=O)c1ccco1)(Nc1nc2ccc(OCC)cc2s1)C(F)(F)F (stereo unspecified)
- GI50 (CCRF-CEM): 23.8 µM (inactive)
- GI50 (K562): 27.6 µM (inactive)
- GI50 (RXF 393): 7.82 µM (inactive)
- GI50 (OVCAR-8): 43.9 µM (inactive)
- GI50 (SK-MEL-5): 19.4 µM (inactive)
- GI50 (SF-295): 43.1 µM (inactive)
- GI50 (TK-10): 50.1 µM (inactive)
- GI50 (786-0): 21.7 µM (inactive)
- GI50 (SNB-75): 19.8 µM (inactive)
- GI50 (A549): 28.8 µM (inactive)
- GI50 (SK-MEL-28): 97.3 µM (inactive)
- GI50 (T47D): 26.9 µM (inactive)
- GI50 (NCI-H522): 21.2 µM (inactive)
- GI50 (SN12C): 37.9 µM (inactive)
- GI50 (PC-3): 25.3 µM (inactive)
- GI50 (MDA-MB-435): 24.4 µM (inactive)
- GI50 (M14): 32.6 µM (inactive)
- GI50 (U-251): 35.2 µM (inactive)
- GI50 (DU-145): 55.3 µM (inactive)
- GI50 (OVCAR-3): 44.9 µM (inactive)
- GI50 (HL-60): > 100 µM (inactive)
- GI50 (UO-31): 4.22 µM (inactive)
- GI50 (SF-539): 43.2 µM (inactive)
- GI50 (MCF7): 25.4 µM (inactive)
- GI50 (OVCAR-5): 34.1 µM (inactive)
- GI50 (SNB-19): 51.4 µM (inactive)
- GI50 (UACC-257): 28.4 µM (inactive)
- GI50 (SF-268): 41.2 µM (inactive)
- GI50 (SK-MEL-2): 32.7 µM (inactive)
- GI50 (HT-29): 32.3 µM (inactive)
- GI50 (HCC 2998): 33.5 µM (inactive)
- GI50 (MDA-MB-231): 55.3 µM (inactive)
- GI50 (SR): 19.3 µM (inactive)
- GI50 (EKVX): 32.8 µM (inactive)
- GI50 (NCI-H23): 27.3 µM (inactive)
- GI50 (NCI-H226): 35.1 µM (inactive)
- GI50 (MDA-N): 21.6 µM (inactive)
- GI50 (UACC-62): 35.6 µM (inactive)
- GI50 (CAKI-1): 17.3 µM (inactive)
- GI50 (SW-620): 61.5 µM (inactive)
- GI50 (COLO 205): 18.5 µM (inactive)
- GI50 (NCI/ADR-RES): 25.8 µM (inactive)
- GI50 (HOP-92): 15 µM (inactive)
- GI50 (OVCAR-4): 30.1 µM (inactive)
- GI50 (KM12): 21.8 µM (inactive)
- GI50 (Hs-578T): 38.7 µM (inactive)
- GI50 (HCT-15): 22.9 µM
- GI50 (MOLT-4): 20.1 µM (inactive)
- GI50 (NCI-H460): 28.1 µM (inactive)
- GI50 (ACHN): 26.8 µM (inactive)
- GI50 (SK-OV-3): 52.8 µM (inactive)
- GI50 (BT-549): 28.6 µM (inactive)
- GI50 (HCT-116): 27.3 µM (inactive)
- GI50 (Malme-3M): 37.2 µM (inactive)

SMILES: OCc1cccc(Nc2nc(O)c3[nH]cnc3n2)c1
- GI50 (CCRF-CEM): > 100 µM (inactive)
- GI50 (K562): > 100 µM (inactive)
- GI50 (RXF 393): > 100 µM (inactive)
- GI50 (OVCAR-8): > 100 µM (inactive)
- GI50 (SK-MEL-5): > 100 µM (inactive)
- GI50 (SF-295): > 100 µM (inactive)
- GI50 (TK-10): > 100 µM (inactive)
- GI50 (786-0): > 100 µM (inactive)
- GI50 (SNB-75): > 100 µM (inactive)
- GI50 (A549): > 100 µM (inactive)
- GI50 (SK-MEL-28): > 100 µM (inactive)
- GI50 (T47D): > 100 µM (inactive)
- GI50 (NCI-H522): > 100 µM (inactive)
- GI50 (SN12C): > 100 µM (inactive)
- GI50 (PC-3): > 100 µM (inactive)
- GI50 (MDA-MB-435): > 100 µM (inactive)
- GI50 (M14): > 100 µM (inactive)
- GI50 (U-251): > 100 µM (inactive)
- GI50 (DU-145): > 100 µM (inactive)
- GI50 (OVCAR-3): > 100 µM (inactive)
- GI50 (HL-60): > 100 µM (inactive)
- GI50 (UO-31): > 100 µM (inactive)
- GI50 (SF-539): > 100 µM (inactive)
- GI50 (MCF7): > 100 µM (inactive)
- GI50 (OVCAR-5): > 100 µM (inactive)
- GI50 (SNB-19): > 100 µM (inactive)
- GI50 (UACC-257): > 100 µM (inactive)
- GI50 (SF-268): > 100 µM (inactive)
- GI50 (SK-MEL-2): > 100 µM (inactive)
- GI50 (HT-29): > 100 µM (inactive)
- GI50 (IGROV-1): > 100 µM (inactive)
- GI50 (HCC 2998): > 100 µM (inactive)
- GI50 (MDA-MB-231): > 100 µM (inactive)
- GI50 (SR): > 100 µM (inactive)
- GI50 (LOX IMVI): > 100 µM (inactive)
- GI50 (EKVX): > 100 µM (inactive)
- GI50 (NCI-H23): > 100 µM (inactive)
- GI50 (HOP-62): > 100 µM (inactive)
- GI50 (NCI-H226): > 100 µM (inactive)
- GI50 (MDA-N): > 100 µM (inactive)
- GI50 (UACC-62): > 100 µM (inactive)
- GI50 (CAKI-1): > 100 µM (inactive)
- GI50 (SW-620): > 100 µM (inactive)
- GI50 (COLO 205): > 100 µM (inactive)
- GI50 (NCI/ADR-RES): > 100 µM (inactive)
- GI50 (HOP-92): > 100 µM (inactive)
- GI50 (OVCAR-4): > 100 µM (inactive)
- GI50 (KM12): > 100 µM (inactive)
- GI50 (Hs-578T): > 100 µM (inactive)
- GI50 (HCT-15): > 100 µM
- GI50 (RPMI-8226): > 100 µM (inactive)
- GI50 (MOLT-4): > 100 µM (inactive)
- GI50 (ACHN): > 100 µM (inactive)
- GI50 (SK-OV-3): > 100 µM (inactive)
- GI50 (BT-549): > 100 µM (inactive)
- GI50 (HCT-116): > 100 µM (inactive)
- GI50 (Malme-3M): > 100 µM (inactive)
